Experimental data reported in patent publication US20040086535A1, “Novel antiviral acitivities of primate theta defensins and mammalian cathelicidins” (priority 2001, published 2004).
Like-named read-outs stand apart in the source and are kept apart here. No end group written: not given here.

Columns and labels:
[1] = % helicity (circular dichroism); format: physicochemical; details: for % helicity in Phos. Buffer: phosphate buffer; for % helicity in phosphate buffer + 40% TFE: phosphate buffer + 40% TFE (parenthetical value)
[2] = test system: HIV (pNL4-3 strain) in HeLa 37 cells; format: cell-based; details: for anti-retroviral activity of carboxy-terminal peptides (qualitative): HIV, 8 μg/ml, 40 h (FIG. 3B), preliminary studies; for anti-viral activity against HIV, numbers of HIV antigen positive cells (qualitative): theta defensins preincubated 15-30 minutes with HIV, HeLa cells, 40 h
[3] = test system: EIAV (MA-1 strain) in equine dermal cell line ED; test: EIAV infectivity, immunostaining of antigen-expressing cells at 40 h; format: cell-based, equine infectious anemia virus; details: for effect on the EIAV virus titer: theta defensins
herpes simplex 1 (HSV-1) = test: HSV-1 plaque formation inhibition, virus preincubated with peptide; format: cell-based, herpes simplex virus 1
herpes simplex 2 (HSV-2) = test: HSV-2 plaque formation inhibition, virus preincubated with peptide; format: cell-based, herpes simplex virus 2
cytomegalovirus (CMV) = test: CMV plaque formation / cytopathology in primary human fibroblasts; format: cell-based; details: for CMV plaque formation: virus preincubated 1 h at 37° C., MOI approx. 5, 14 days post infection
[4] = test system: adenovirus, a non-enveloped virus; test: Adenovirus infectivity; format: cell-based; details: similar concentrations (6-8 μg/ml); data not shown
EIAV (MA-1) = test: Time course of Ov-1 addition against EIAV, antigen immunostaining of monolayers; format: cell-based, equine infectious anemia virus; details: 10 μg/ml
Description: Studies with EIAV investigating the mode of action of the Ov class antivirals indicate that the peptides are acting early within the viral life cycle, perhaps acting on the viral particle itself. Ten μg/ml of Ov-1 was added to virus stocks of MA-1 either before, at the time of infection or various times following infection. Virus and peptide was then removed from the media 48 h post infection and the infected cultures were maintained for an additional 5 days to allow spread of any virus that is present within the culture. Monolayers were then immunostained for EIAV antigen expression.

[5] = test system: herpes viruses and retroviruses
[6] = test system: primary human fibroblasts
[7] = mouse, in vivo, 5 mg/kg
[8] = mice, lung instillation of 100 μg
[9] = Systemic toxicity in mice; details: systemic dose of 5 mg/kg
vaccinia virus = test: Vaccinia virus replication; format: cell-based; details: similar concentrations

KNLRRITRKIIHIIKKYG [Ov-2 (T7)]
% helicity in Phos. Buffer [1]: 8.0%
% helicity in phosphate buffer + 40% TFE [1]: 66.8%

HIIKKYGPTILRIIRIIG-NH2 [Ov-6, 18 carboxyl-terminal amino acids of Ov-1]
anti-retroviral activity of carboxy-terminal peptides (qualitative) [2]: did not have appreciable anti-viral activity

GICRCICGRGICRCICGR [HTD-1, synthetic peptide specified from human pseudogene, human theta defensin 1]
effect on the EIAV virus titer [3]: no effect
enhancement of IC50 by circularization ([2]; oxidized, circularized versus oxidized form): about 10 fold
anti-viral activity against HIV, numbers of HIV antigen positive cells (qualitative) [2]: greatest anti-viral activity
anti-viral activity against HIV, numbers of HIV antigen positive cells (qualitative) ([2]; listed as human theta defensin-1): most effective

GFCRCLCRRGVCRCICTR [RTD-1, rhesus monkey theta defensin]
effect on the EIAV virus titer [3]: no effect

GVCRCLCRRGVCRCLCRR [RTD-3, rhesus monkey theta defensin]
anti-viral activity against HIV, numbers of HIV antigen positive cells (qualitative) [2]: greatest anti-viral activity
anti-viral activity against HIV, numbers of HIV antigen positive cells (qualitative) ([2]; listed as rhesus theta defensin-3): most effective

KIIHIIKKYGPTILRIIRIIG-NH2 [Ov-4, carboxy-terminal 21-mer of Ov-1]
anti-retroviral activity of carboxy-terminal peptides (qualitative) [2]: have anti-retroviral activity

KNLRRIIRKGIHIIKKYG [Ov-2 (G10)]
% helicity in Phos. Buffer [1]: 7.4%
% helicity in phosphate buffer + 40% TFE [1]: 50.4%

KNLRRIIRKIIHIIKKYGPTILRIIRIIG-NH2 [Ov-1]
inhibition of HSV-1 plaque formation (herpes simplex 1 (HSV-1); 6 μg/ml peptide): 3-6 fold
inhibition of HSV-1 plaque formation (herpes simplex 1 (HSV-1); 18 μg/ml peptide): approximately 100 fold
inhibition of HSV-2 plaque formation (herpes simplex 2 (HSV-2); 6 μg/ml peptide): 3-6 fold
inhibition of HSV-2 plaque formation (herpes simplex 2 (HSV-2); 18 μg/ml peptide): approximately 100 fold
CMV plaque formation (cytomegalovirus (CMV); 5 μg/ml): Plaque formation and accompanying monolayer disintegration can be observed
CMV plaque formation (cytomegalovirus (CMV); 20 μg/ml): No plaque formation was detected
CMV plaque formation (qualitative) (cytomegalovirus (CMV); 14 days): reduced plaque formation
decrease of EIAV infectivity ([3]; 6-8 μg/ml peptide): greater than 100 fold
decrease of HIV infectivity ([2]; 6-8 μg/ml peptide): greater than 100 fold
effect on infectivity of adenovirus [4]: < 10 fold
outcome of culture (qualitative) (EIAV (MA-1); added 30 minutes or later following virus infection): resulted in infection and spread of the virus throughout the monolayer
effectiveness in inhibiting virus replication (EIAV (MA-1); added during preincubation or at the time of infection): 100%
% helicity in Phos. Buffer [1]: 43.9%
% helicity in phosphate buffer + 40% TFE [1]: 97.9%
effective LD50 for inhibiting herpes viruses and retroviruses [5]: approximately 3 μg/ml
effect on the monolayer of primary human fibroblasts [6]: little to no effect
adverse effects [7]: no adverse effects

IHIIKKYGPTILRIIRIIG-NH2 [Ov-5, carboxy-terminal 19-mer of Ov-1]
anti-retroviral activity of carboxy-terminal peptides (qualitative) [2]: have anti-retroviral activity

KNLRRIIRKIIHIIKKYG [Ov-2, KNLRRIIRKIIHIIKKYG]
inflammation, cytokine elevation, blood markers [8]: No imflammation, cytokine elevation or increase in blood markers was detected
adverse effects [9]: no adverse effects

ISRLAGLLRKGGEKIGEKLKKIGQKIKNFFQKLVPQPEQ (listed as Mus musculus) [mCramp, a murine cathelicidin]
reduction of herpes simplex 1 replication (herpes simplex 1 (HSV-1)): approximately 75%
reduction of herpes simplex 2 replication (herpes simplex 2 (HSV-2)): approximately 75%
infectivity of EIAV (qualitative) [3]: consistently reduced the infectivity
infectivity of HIV (qualitative) [2]: consistently reduced the infectivity
inhibitory effect on vaccinia virus replication (vaccinia virus): no inhibitory effect

LRRIIRKIIHIIKK-NH2 [Ov-3, LRRIIRKIIHIIKK-NH2]
adverse effects [9]: no adverse effects
